Test results as given in patent US20240360153A1 (Regeneron Pharmaceuticals, Inc., priority 2023, published 2024).
Where “and” joins values, the source holds several entries; their conditions need not be identical. Equal entries are not always repeated.

What was measured:
[1] = In vitro microsomal metabolic stability, human liver microsomes; assay type: in vitro ADME; conditions: for Remaining (T = 60 min) / Remaining (T = NCF60 min) / half-life at 1 µM: Human liver microsomes; for Remaining (T = 60 min): with NADPH; for Remaining (T = NCF60 min): without NADPH regenerating system; for Remaining (T = 60 min) / Remaining (T = NCF60 min): 60 min; for CLint scaled at 1 µM / microsomal CLint at 1 µM: human, human liver microsomes; for CLint scaled at 1 µM / microsomal CLint at 1 µM / half-life at 1 µM: pH 7.2; for half-life at 1 µM: 0.5 mg/ml protein, NADPH
Summary of the method: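 Compounds at 1 μM incubated at 37° C with pooled CD-1 mouse or human liver microsomes (0.5 mg/mL protein) plus NADPH regenerating system in 50 mM potassium phosphate, pH 7.2, 3.3 mM MgCl2; sampled at 0–60 min, 60-min no-NADPH control. Parent loss by LC/MS/MS analyte/IS peak-area ratio, n=1.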

[2] = tested on: S6K1 (Thr389) phosphorylation (mTORC1 activity) in FKBP12 knock-out 293T cells; test: Inhibition of S6K1 (Thr389) phosphorylation in FKBP12 knock-out 293T cells (ELISA); assay type: cell-based, human
Summary of the method: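 CRISPR-generated FKBP12 knock-out HEK293T cells, alongside wild-type, were treated in duplicate for 2 hours at 37 °C with an 8–11-point dose range (0.001 pM–10 μM). Phospho-S6K1 Thr389 quantified by ELISA as an mTORC1 activity read-out, with DMSO as negative control.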

Remaining (T = 60 min) [1]	Remaining (T = NCF60 min) [1]	CLint scaled at 1 µM [1]	microsomal CLint at 1 µM [1]	half-life at 1 µM [1]	Structure (SMILES)	fold less potent compared with RAD001 ([2]; FKBP12 knock-out cells, at similar level of inhibition)	inhibition at 10 µM ([2]; Homo sapiens, HEK-293T, FKBP12 knock-out cells, 10 μM (highest tested concentration))	selectivity for FKBP12 compared with RAD001 (in words) ([2]; wild-type versus FKBP12 knock-out cells)	S6K1 inhibition achieved ([2]; FKBP12 knock-out 293T cells, concentration not given)	concentration achieving 30% inhibition of S6K1 (Thr389) phosphorylation ([2]; FKBP12 knock-out cells)	concentration achieving ~40% of S6K1 (Thr389) inhibition ([2]; FKBP12 knock-out cells)	inhibition of S6K1 (Thr389) phosphorylation in the absence of FKBP12 (in words) ([2]; FKBP12 knock-out cells)	inhibition of S6K1 phosphorylation ([2]; FKBP12 knock-out cells, 100 nM, 0.1 µM)	inhibition of S6K1 (Thr389) phosphorylation ([2]; FKBP12 knock-out cells, 10 μM (highest tested concentration), 10 µM)	inhibition at 0.1 µM ([2]; Homo sapiens, HEK-293T, FKBP12 knock-out cells, 100 nM)	IC50 ([2]; Homo sapiens, HEK-293T, FKBP12 knock-out 293T cells)
63.3%	115%	25.5 mL/min/kg	28.3 µL/min/mg	49 min	COCCN(c1ccccc1)C1C[C@@H]2CC[C@@H](C)[C@@](O)(O2)C(=O)C(=O)N2CCCC[C@H]2C(=O)OC([C@H](C)CC2CC[C@@H](O)C(OC)C2)CC[C@H](C)/C=C(\C)C(O)C(OC)C(=O)[C@H](C)C[C@H](C)/C=C/C=C/C=C/1C (stereo partly drawn) [Compound 69, (3S,6S,7E,9R,10R,12R,14S,15E,17E,19E,23S,26R,27R,34aS)-9,27-dihydroxy-3-((R)-1-((1S,3R,4R)-4-hydroxy-3-methoxycyclohexyl)propan-2-yl)-10-methoxy-21-((2-methoxyethyl)(phenyl)amino)-6,8,12,14,20,26-hexamethyl-5,6,9,10,12,13,14,21,22,23,24,25,26,27,32,33,34,34a-octadecahydro-3H-23,27-epoxypyrido[2,1-c][1]oxa[4]azacyclohentriacontine-1,11,28,29(4H,31H)-tetraone]	about 3000 fold	~30%	more selective than RAD001								
2.10%	120%	112 mL/min/kg	124 µL/min/mg	11.1 min	CO[C@H]1C[C@@H]2CC[C@@H](C)[C@@](O)(O2)C(=O)C(=O)N2CCCC[C@H]2C(=O)O[C@H]([C@H](C)C[C@@H]2CC[C@@H](OCCO)[C@H](OC)C2)CC(=O)[C@H](C)/C=C(\C)[C@@H](O)[C@@H](OC)C(=O)[C@H](C)C[C@H](C)/C=C/C=C/C=C/1C [RAD001, everolimus, reference compound]				about 50%	~3.0 nM	447 nM	inhibited the mTORC1 signaling in a dose dependent manner	~35%	~80% and ~70% and 42% and 45% and 58% and 73.5% and 62% and ~60%	~30%	31.3 nM
